pIC50: −log10 of the molar value.
These compounds were tested against human A2A receptor (A2AR) (Homo sapiens, UniProt P29274) (assay: Luciferase reporter assay (HEK293-A2AR-luc2p/CRE/Hygro cells, 3 nM CGS21680)). Conditions: 3 nM CGS21680, 5 h incubation.
Format: cell-based
Procedure: HEK293 cells were maintained in Dulbecco's modified Eagle's medium (DMEM, Gibco) supplemented with 10% fetal bovine serum (FBS, Thermo Scientific), 100 units/mL penicillin (Gibco), and 0.1 mg/mL streptomycin (Gibco) in a humidified 37° C. environment with 5% C02. Plasmid encoding wild-type human A2A receptor (A2AR) (in pcDNA3.1) was synthesized by Genscript (Nanjing, China). Transfection of the plasmids was performed in 6-well plates with 4×10^5 cells using Lipofectamin 2000 (ThermoFisher Scientific) according to the instruction of the manufacturer. Cell clones that stably express A2AR were established and maintained in the same complete medium as the HEK293 cells in addition of G-418 (Gibico). Expression level of A2AR in each single cell clone was determined using immunoblotting and FACS method. HEK293-A2AR stable cells were then transfected with pGL4.29[luc2P/CRE/Hygro] (Promega) luciferase reporter plasmid for establishing the HEK293-A2AR-luc2p/CRE/Hygro stable cell line.
HEK293-A2AR-luc2p/CRE/Hygro cells were seeded at a density of 5,000 cells/well in DMEM with 1% FBS and 1 U/mL adenosine deaminase (ADA) (Sigma). After 18 h, the cells were treated with 3 nM CGS21680 plus a series dilution of A2AR antagonist, the compounds disclosed herein at the concentration of 0.1˜10000 nM, prepared in DMEM with 1% FBS. After 5 h incubation, the luciferase activity in cells were measured using the Bright-Glo Luciferase Assay System (Promega) according to manufacturer's instructions. The luminescence signal was measured using a PHERAstar FS plate reader (BMG Labtech). […] Maximal luminescence intensity was determined in the presence of 3 nM CGS21680 and was set as 100%. The IC50 value was calculated from a dose dependent inhibition curve across the range of compound concentrations.

Sequence of human A2A receptor (A2AR) (P29274 whole entry): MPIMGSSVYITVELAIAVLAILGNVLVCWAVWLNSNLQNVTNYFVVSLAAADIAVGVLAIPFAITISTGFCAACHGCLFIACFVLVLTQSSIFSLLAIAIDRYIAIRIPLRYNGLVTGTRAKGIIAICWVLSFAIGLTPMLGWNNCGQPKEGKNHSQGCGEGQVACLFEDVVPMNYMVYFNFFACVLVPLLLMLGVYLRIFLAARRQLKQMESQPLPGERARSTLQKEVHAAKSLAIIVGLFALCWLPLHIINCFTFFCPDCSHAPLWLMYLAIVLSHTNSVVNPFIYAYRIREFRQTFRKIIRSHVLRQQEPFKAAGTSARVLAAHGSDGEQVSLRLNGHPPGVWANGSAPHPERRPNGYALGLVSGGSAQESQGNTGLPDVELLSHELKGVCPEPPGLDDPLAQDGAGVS

CC(C(=O)N1CCN(c2ccc(OCCN)cc2)CC1)n1ncc2c1nc(N)n1nc(-c3ccco3)nc21 (stereo not shown) [Compound A7, 2-(5-amino-2-(furan-2-yl)-7H-pyrazolo[4,3-e][1,2,4]triazolo[1,5-c]pyrimidin-7-yl)-1-(4-(4-(2-aminoethoxy)phenyl)piperazin-1-yl)propan-1-one] and CC(C(=O)N1CCN(c2ccc(OCCN(C)C)cc2)CC1)n1ncc2c1nc(N)n1nc(-c3ccco3)nc21 (stereo not shown) [Compound A18, 2-(5-amino-2-(furan-2-yl)-7H-pyrazolo[4,3-e][1,2,4]triazolo[1,5-c]pyrimidin-7-yl)-1-(4-(4-(2-(dimethylamino)ethoxy)phenyl)piperazin-1-yl)propan-1-one] are within 0.2 log units of each other in pIC50: 7.64 for the first, 7.51 for the second.

Compared with CCC(C(=O)N1CCN(c2ccc(OCCOCCOC)cc2)CC1)n1ncc2c1nc(N)n1nc(-c3ccco3)nc21 (stereo not shown) [Compound A8, 2-(5-amino-2-(furan-2-yl)-7H-pyrazolo[4,3-e][1,2,4]triazolo[1,5-c]pyrimidin-7-yl)-1-(4-(4-(2-(2-methoxyethoxy)ethoxy)phenyl)piperazin-1-yl)butan-1-one], CCCCC(C(=O)N1CCN(c2ccc(OCCOCCOC)cc2)CC1)n1ncc2c1nc(N)n1nc(-c3ccco3)nc21 (stereo not shown) [Compound A11, 2-(5-amino-2-(furan-2-yl)-7H-pyrazolo[4,3-e][1,2,4]triazolo[1,5-c]pyrimidin-7-yl)-1-(4-(4-(2-(2-methoxyethoxy)ethoxy)phenyl)piperazin-1-yl)hexan-1-one] is 0.78 log units higher in pIC50: 7.38 for the first, 8.16 for the second. The second is the more potent here.

First: COCCOCCOc1ccc(N2CCN(C(=O)C(C)n3ncc4c3nc(N)n3nc(-c5ccco5)nc43)CC2)cc1 (stereo not shown) [Compound A9, 2-(5-amino-2-(furan-2-yl)-7H-pyrazolo[4,3-e][1,2,4]triazolo[1,5-c]pyrimidin-7-yl)-1-(4-(4-(2-(2-methoxyethoxy)ethoxy)phenyl)piperazin-1-yl)propan-1-one]
Second: COCCOCCOc1ccc(N2CCN(C(=O)C(C(C)C)n3ncc4c3nc(N)n3nc(-c5ccco5)nc43)CC2)cc1 (stereo not shown) [Compound A12, 2-(5-amino-2-(furan-2-yl)-7H-pyrazolo[4,3-e][1,2,4]triazolo[1,5-c]pyrimidin-7-yl)-1-(4-(4-(2-(2-methoxyethoxy)ethoxy)phenyl)piperazin-1-yl)-3-methylbutan-1-one]
The pIC50 of the first is 0.28 log units higher: 7.23 for the first, 6.95 for the second.

Compared with CCCCC(C(=O)N1CCN(c2ccc(OCCOC)cc2)CC1)n1ncc2c1nc(N)n1nc(-c3ccco3)nc21 (stereo not shown) [Compound A10, 2-(5-amino-2-(furan-2-yl)-7H-pyrazolo[4,3-e][1,2,4]triazolo[1,5-c]pyrimidin-7-yl)-1-(4-(4-(2-methoxyethoxy)phenyl)piperazin-1-yl)hexan-1-one], COCCOc1ccc(N2CCN(C(=O)C(CC(C)C)n3ncc4c3nc(N)n3nc(-c5ccco5)nc43)CC2)cc1 (stereo not shown) [Compound A16, 2-(5-amino-2-(furan-2-yl)-7H-pyrazolo[4,3-e][1,2,4]triazolo[1,5-c]pyrimidin-7-yl)-1-(4-(4-(2-methoxyethoxy)phenyl)piperazin-1-yl)-4-methylpentan-1-one] is 0.69 log units higher in pIC50: 8.20 for the first, 8.89 for the second. The second is the more potent here.

First: COCCOc1ccc(N2CCN(C(=O)C(c3ccccc3)n3ncc4c3nc(N)n3nc(-c5ccco5)nc43)CC2)cc1 (stereo not shown) [Compound A13, 2-(5-amino-2-(furan-2-yl)-7H-pyrazolo[4,3-e][1,2,4]triazolo[1,5-c]pyrimidin-7-yl)-1-(4-(4-(2-methoxyethoxy)phenyl)piperazin-1-yl)-2-phenylethan-1-one]
Second: COCCOCCOc1ccc(N2CCN(C(=O)C(c3ccccc3)n3ncc4c3nc(N)n3nc(-c5ccco5)nc43)CC2)cc1 (stereo not shown) [Compound A14, 2-(5-amino-2-(furan-2-yl)-7H-pyrazolo[4,3-e][1,2,4]triazolo[1,5-c]pyrimidin-7-yl)-1-(4-(4-(2-(2-methoxyethoxy)ethoxy)phenyl)piperazin-1-yl)-2-phenylethan-1-one]
The pIC50 of the first is 0.64 log units higher: 8.54 for the first, 7.90 for the second.

First: COCCOc1ccc(N2CCN(C(=O)C(C3CC3)n3ncc4c3nc(N)n3nc(-c5ccco5)nc43)CC2)cc1 (stereo not shown) [Compound A15, 2-(5-amino-2-(furan-2-yl)-7H-pyrazolo[4,3-e][1,2,4]triazolo[1,5-c]pyrimidin-7-yl)-2-cyclopropyl-1-(4-(4-(2-methoxyethoxy)phenyl)piperazin-1-yl)ethan-1-one]
Second: COCCOCCOc1ccc(N2CCN(C(=O)C(C3CC3)n3ncc4c3nc(N)n3nc(-c5ccco5)nc43)CC2)cc1 (stereo not shown) [Compound A21, 2-(5-amino-2-(furan-2-yl)-7H-pyrazolo[4,3-e][1,2,4]triazolo[1,5-c]pyrimidin-7-yl)-2-cyclopropyl-1-(4-(4-(2-(2-methoxyethoxy)ethoxy)phenyl)piperazin-1-yl)ethan-1-one]
The pIC50 of the first is 0.41 log units higher: 8.08 for the first, 7.67 for the second.

COCCOCCOc1ccc(N2CCN(C(=O)C(CC(C)C)n3ncc4c3nc(N)n3nc(-c5ccco5)nc43)CC2)cc1 (stereo not shown) [Compound A17, 2-(5-amino-2-(furan-2-yl)-7H-pyrazolo[4,3-e][1,2,4]triazolo[1,5-c]pyrimidin-7-yl)-1-(4-(4-(2-(2-methoxyethoxy)ethoxy)phenyl)piperazin-1-yl)-4-methylpentan-1-one] and COCCOc1ccc(N2CCN(C(=O)C(CC(C)C)n3ncc4c3nc(N)n3nc(-c5ccco5)nc43)CC2)c(F)c1 (stereo not shown) [Compound A23, 2-(5-amino-2-(furan-2-yl)-7H-pyrazolo[4,3-e][1,2,4]triazolo[1,5-c]pyrimidin-7-yl)-1-(4-(2-fluoro-4-(2-methoxyethoxy)phenyl)piperazin-1-yl)-4-methylpentan-1-one] are within 0.2 log units of each other in pIC50: 8.96 for the first, 8.85 for the second.

COCCOc1ccc(N2CCN(C(=O)C(Cc3ccccc3)n3ncc4c3nc(N)n3nc(-c5ccco5)nc43)CC2)cc1 (stereo not shown) [Compound A19, 2-(5-amino-2-(furan-2-yl)-7H-pyrazolo[4,3-e][1,2,4]triazolo[1,5-c]pyrimidin-7-yl)-1-(4-(4-(2-methoxyethoxy)phenyl)piperazin-1-yl)-3-phenylpropan-1-one] and CCCC(C(=O)N1CCN(c2ccc(OCCOC)cc2F)CC1)n1ncc2c1nc(N)n1nc(-c3ccco3)nc21 (stereo not shown) [Compound A24, 2-(5-amino-2-(furan-2-yl)-7H-pyrazolo[4,3-e][1,2,4]triazolo[1,5-c]pyrimidin-7-yl)-1-(4-(2-fluoro-4-(2-methoxyethoxy)phenyl)piperazin-1-yl)pentan-1-one] are within 0.2 log units of each other in pIC50: 8.19 for the first, 8.36 for the second.

Going from CCCC(C(=O)N1CCN(c2ccc(F)cc2F)CC1)n1ncc2c1nc(N)n1nc(-c3ccco3)nc21 (stereo not shown) [Compound A20, 2-(5-amino-2-(furan-2-yl)-7H-pyrazolo[4,3-e][1,2,4]triazolo[1,5-c]pyrimidin-7-yl)-1-(4-(2,4-difluorophenyl)piperazin-1-yl)pentan-1-one] to CC(C)CC(C(=O)N1CCN(c2ccc(F)cc2F)CC1)n1ncc2c1nc(N)n1nc(-c3ccco3)nc21 (stereo not shown) [Compound A22, 2-(5-amino-2-(furan-2-yl)-7H-pyrazolo[4,3-e][1,2,4]triazolo[1,5-c]pyrimidin-7-yl)-1-(4-(2,4-difluorophenyl)piperazin-1-yl)-4-methylpentan-1-one], the pIC50 rises from 8.37 to 8.82 (0.45 log units). The second is the more potent here.

CCCC(C(=O)N1CCN(c2c(F)cc(OCCOC)cc2F)CC1)n1ncc2c1nc(N)n1nc(-c3ccco3)nc21 (stereo not shown) [Compound A25, 2-(5-amino-2-(furan-2-yl)-7H-pyrazolo[4,3-e][1,2,4]triazolo[1,5-c]pyrimidin-7-yl)-1-(4-(2,6-difluoro-4-(2-methoxyethoxy)phenyl)piperazin-1-yl)pentan-1-one] showed a pIC50 of 8.35.

Reference: patent US20210300936A1, “PYRAZOLOTRIAZOLOPYRIMIDINE DERIVATIVES AS A2A RECEPTOR ANTAGONIST” (BEIGENE, LTD., priority 2018, published 2021)
